Measurements as given in ChEMBL document CHEMBL4376834, “Discovery of 4H-Chromen-4-one Derivatives as a New Class of Selective Rho Kinase (ROCK) Inhibitors, which Showed Potent Activity in ex Vivo Diabetic Retinopathy Models” (J Med Chem, 2019).

Columns and labels:
[1] = target: 5'-AMP-activated protein kinase catalytic subunit alpha-2 (Homo sapiens, UniProt P54646); test: Inhibition of human full length AMPKalpha2 recombinant using AMARAASAAALAR as substrate incubated for 40 mins in presence of [gamma-33ATP] by radiometric scintillation counting analysis
[2] = target: Calcium/calmodulin-dependent protein kinase type II subunit delta (Homo sapiens, UniProt Q13557); test: Inhibition of recombinant full length human CaMK2delta using calmodulin as substrate incubated for 40 mins in presence of [gamma-33ATP] by radiometric scintillation counting analysis
[3] = target: Dual specificity protein kinase CLK2 (Homo sapiens, UniProt P49760); test: Inhibition of recombinant human CLK2 (138 to end residues) using YRRAAVPPSPSLSR as substrate incubated 40 mins in presence of [gamma-33ATP] by radiometric scintillation counting analysis
[4] = target: Mast/stem cell growth factor receptor Kit (Homo sapiens, UniProt P10721, D816V); test: Inhibition of recombinant human C-Kit D816V mutant (544 to end residues) using poly(Glu, Tyr) 4:1 as substrate incubated 40 mins in presence of [gamma-33ATP] by radiometric scintillation counting analysis
[5] = target: Protein kinase C beta type (Homo sapiens, UniProt P05771); test: Inhibition of recombinant human PKCbeta2 (2 to end residues) using histone H1 as substrate incubated for 40 mins in presence of [gamma33P]ATP by radiometric scintillation counting analysis
[6] = target: Mitogen-activated protein kinase kinase kinase 10 (Homo sapiens, UniProt Q02779); test: Inhibition of recombinant human MLK2 (1 to 499 residues) using myelin basic protein as substrate incubated for 40 mins in presence of [gamma-33ATP by radiometric scintillation counting analysis
[7] = target: Ribosomal protein S6 kinase alpha-4 (Homo sapiens, UniProt O75676); test: Inhibition of recombinant human MSK2 (2 to end residues) using GRPRTSSFAEGKK as substrate incubated for 40 mins in presence of [gamma-33ATP by radiometric scintillation counting analysis
[8] = target: SRSF protein kinase 3 (Homo sapiens, UniProt Q9UPE1); test: Inhibition of recombinant full-length human MSSK1 using ERMRPRKRQGSVRRRV as substrate measured after 40 mins in presence of [gamma33P]ATP by radiometric scintillation counting analysis
[9] = target: Serine/threonine-protein kinase 24 (Homo sapiens, UniProt Q9Y6E0); test: Inhibition of recombinant human MST3 (1 to 304 residues) using ERMRPRKRQGSVR as substrate measured after 40 mins in presence of [gamma33P]ATP by radiometric scintillation counting analysis
[10] = Inhibition of recombinant human PAK2 L150F/P225T/A339 deletion/V383I mutant (3 to end residues) using KEAKEKRQEQIAKR as substrate incubated for 40 mins in presence of [gamma33P]ATP by radiometric scintillation counting analysis
[11] = target: Epidermal growth factor receptor (Homo sapiens, UniProt P00533); test: Inhibition of recombinant human EGFR (696 to end residues) using poly(Glu, Tyr) 4:1 as substrate after 40 mins in presence of [gamma-33ATP] by radiometric scintillation counting analysis
[12] = target: Ephrin type-A receptor 4 (Homo sapiens, UniProt P54764); test: Inhibition of recombinant human EphA4 (601 to 892 residues) using poly(Glu, Tyr) 4:1 as substrate measured after 40 mins in presence of [gamma33ATP] by radiometric scintillation counting analysis
[13] = target: Ephrin type-A receptor 7 (Homo sapiens, UniProt Q15375); test: Inhibition of recombinant human EphA7 (613 to 909 residues) using KTFCGTPEYLAPE as substrate measured after 40 mins in presence of [gamma33ATP] by radiometric scintillation counting analysis
[14] = target: Receptor-type tyrosine-protein kinase FLT3 (Homo sapiens, UniProt P36888, D835Y); test: Inhibition of recombinant human FLT3 D835Y mutant (564 to end residues) using EAIYAAPFAKKK as substrate after 40 mins in presence of [gamma-33ATP] by radiometric scintillation counting analysis
[15] = target: G protein-coupled receptor kinase 6 (Homo sapiens, UniProt P43250); test: Inhibition of recombinant full length human GRK6 using casein as substrate after 40 mins in presence of [gamma-33ATP] by radiometric scintillation counting analysis
[16] = target: Tyrosine-protein kinase JAK3 (Homo sapiens, UniProt P52333); test: Inhibition of human recombinant JAK3 (781 to end residues) using GGEEEEYFELVKK as substrate after 40 mins by [gamma-33ATP] by radiometric scintillation counting analysis
[17] = target: Proto-oncogene tyrosine-protein kinase receptor Ret (Homo sapiens, UniProt P07949); test: Inhibition of recombinant human Ret (658 to end residues) using KKKSPGEYVNIEF as substrate incubated for 40 mins in presence of [gamma33P]ATP by radiometric scintillation counting analysis
[18] = target: Proto-oncogene tyrosine-protein kinase receptor Ret (Homo sapiens, UniProt P07949, V804M); test: Inhibition of recombinant human Ret V804M mutant (658 to end residues) using KKKVSRSGLYRSP as substrate incubated for 40 mins in presence of [gamma33P]ATP by radiometric scintillation counting analysis
[19] = target: Serine/threonine-protein kinase 25 (Homo sapiens, UniProt O00506); test: Inhibition of recombinant human STK25 (1 to 308 residues) using RLGRDKYKTLRQI as substrate incubated for 40 mins in presence of [gamma33P]ATP by radiometric scintillation counting analysis
[20] = target: Angiopoietin-1 receptor (Homo sapiens, UniProt Q02763, Q939H/Q940H); test: Inhibition of recombinant human TIE2 Q939H/Q940H double mutant (771 to end residues) using poly(Glu, Tyr) 4:1 as substrate incubated for 40 mins in presence of [gamma33P]ATP by radiometric scintillation counting analysis
[21] = target: Serine/threonine-protein kinase tousled-like 1 (Homo sapiens, UniProt Q9UKI8); test: Inhibition of recombinant full-length human TLK1 using casein as substrate incubated for 40 mins in presence of [gamma33P]ATP by radiometric scintillation counting analysis
[22] = target: Serine/threonine-protein kinase tousled-like 2 (Homo sapiens, UniProt Q86UE8); test: Inhibition of recombinant human TLK2 (387 to end residues) using casein as substrate incubated for 40 mins in presence of [gamma33P]ATP by radiometric scintillation counting analysis
[23] = target: PI3-kinase p110-alpha/p85-alpha (Homo sapiens, UniProt P42336, E542K); test: Inhibition of recombinant human full length PI3K p110alpha/p85alpha E542K mutant using phosphatidylinositol 4,5-bisphosphate as substrate incubated for 40 mins in presence of [gamma33P]ATP by radiometric scintillation counting analysis
[24] = target: Ephrin type-A receptor 8 (Homo sapiens, UniProt P29322); test: Inhibition of recombinant human EPhA8 (615 to 911 residues) at 10 uM using KTFCGTPEYLAPE as substrate incubated for 40 mins in presence of [gamma-33PATP] by radiometric scintillation counting analysis

Measured: IC50

Chain of PI3-kinase p110-alpha/p85-alpha (P42336 whole entry E542K, looked up, the tested form may be a part): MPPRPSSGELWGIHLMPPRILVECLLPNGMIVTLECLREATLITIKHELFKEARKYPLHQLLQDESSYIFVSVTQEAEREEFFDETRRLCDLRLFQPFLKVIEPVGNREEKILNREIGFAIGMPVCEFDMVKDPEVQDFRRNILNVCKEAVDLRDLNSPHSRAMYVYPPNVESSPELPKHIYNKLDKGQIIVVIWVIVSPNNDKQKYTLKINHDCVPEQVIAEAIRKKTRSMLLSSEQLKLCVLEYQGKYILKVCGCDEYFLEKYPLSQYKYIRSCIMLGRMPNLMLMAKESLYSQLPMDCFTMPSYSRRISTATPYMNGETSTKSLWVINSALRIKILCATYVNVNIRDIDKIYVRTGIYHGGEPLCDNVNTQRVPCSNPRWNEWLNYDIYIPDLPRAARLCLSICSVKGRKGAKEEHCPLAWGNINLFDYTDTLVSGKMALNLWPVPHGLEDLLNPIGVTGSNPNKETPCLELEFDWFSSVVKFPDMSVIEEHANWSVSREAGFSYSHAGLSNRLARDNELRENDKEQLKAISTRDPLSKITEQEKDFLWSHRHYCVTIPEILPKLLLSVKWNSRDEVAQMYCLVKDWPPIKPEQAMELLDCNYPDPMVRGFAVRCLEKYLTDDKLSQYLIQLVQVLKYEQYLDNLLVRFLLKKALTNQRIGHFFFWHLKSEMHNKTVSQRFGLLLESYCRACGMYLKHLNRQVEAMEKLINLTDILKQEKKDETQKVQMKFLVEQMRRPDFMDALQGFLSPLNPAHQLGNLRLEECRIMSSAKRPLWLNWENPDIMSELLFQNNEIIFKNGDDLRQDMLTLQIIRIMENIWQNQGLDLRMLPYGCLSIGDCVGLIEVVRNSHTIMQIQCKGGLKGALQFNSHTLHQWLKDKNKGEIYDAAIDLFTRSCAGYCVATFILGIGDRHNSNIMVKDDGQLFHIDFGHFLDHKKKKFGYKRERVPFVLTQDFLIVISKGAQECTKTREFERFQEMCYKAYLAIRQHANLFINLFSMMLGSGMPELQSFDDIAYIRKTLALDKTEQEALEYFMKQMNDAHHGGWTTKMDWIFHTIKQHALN
Chain of Mast/stem cell growth factor receptor Kit (P10721 26-976 D816V limits assumed): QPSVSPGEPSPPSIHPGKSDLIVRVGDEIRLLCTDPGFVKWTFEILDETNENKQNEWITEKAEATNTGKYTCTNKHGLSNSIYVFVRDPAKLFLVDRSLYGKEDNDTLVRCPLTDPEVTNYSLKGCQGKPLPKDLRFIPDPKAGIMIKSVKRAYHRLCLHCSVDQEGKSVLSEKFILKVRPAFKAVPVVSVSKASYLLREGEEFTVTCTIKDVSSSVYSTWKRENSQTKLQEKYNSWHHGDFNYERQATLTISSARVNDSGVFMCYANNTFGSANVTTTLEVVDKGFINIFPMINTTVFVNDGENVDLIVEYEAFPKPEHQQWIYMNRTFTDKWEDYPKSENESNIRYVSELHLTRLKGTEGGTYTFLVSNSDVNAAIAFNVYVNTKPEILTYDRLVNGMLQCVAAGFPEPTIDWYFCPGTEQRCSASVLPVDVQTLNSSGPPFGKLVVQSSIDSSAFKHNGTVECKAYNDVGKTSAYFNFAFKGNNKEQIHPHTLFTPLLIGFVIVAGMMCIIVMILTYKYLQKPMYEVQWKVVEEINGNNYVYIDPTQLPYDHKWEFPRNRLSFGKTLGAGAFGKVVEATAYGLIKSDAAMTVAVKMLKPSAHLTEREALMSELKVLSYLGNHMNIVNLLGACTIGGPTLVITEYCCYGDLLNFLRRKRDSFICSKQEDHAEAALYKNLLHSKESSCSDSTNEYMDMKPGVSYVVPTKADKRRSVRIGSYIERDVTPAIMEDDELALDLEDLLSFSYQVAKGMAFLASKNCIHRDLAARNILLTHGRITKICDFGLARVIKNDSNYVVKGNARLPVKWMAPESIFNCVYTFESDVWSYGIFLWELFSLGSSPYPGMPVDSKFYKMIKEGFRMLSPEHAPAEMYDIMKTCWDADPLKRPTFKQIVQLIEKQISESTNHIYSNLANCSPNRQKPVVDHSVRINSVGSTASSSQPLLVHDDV
Chain of Dual specificity protein kinase CLK2 (P49760 whole entry): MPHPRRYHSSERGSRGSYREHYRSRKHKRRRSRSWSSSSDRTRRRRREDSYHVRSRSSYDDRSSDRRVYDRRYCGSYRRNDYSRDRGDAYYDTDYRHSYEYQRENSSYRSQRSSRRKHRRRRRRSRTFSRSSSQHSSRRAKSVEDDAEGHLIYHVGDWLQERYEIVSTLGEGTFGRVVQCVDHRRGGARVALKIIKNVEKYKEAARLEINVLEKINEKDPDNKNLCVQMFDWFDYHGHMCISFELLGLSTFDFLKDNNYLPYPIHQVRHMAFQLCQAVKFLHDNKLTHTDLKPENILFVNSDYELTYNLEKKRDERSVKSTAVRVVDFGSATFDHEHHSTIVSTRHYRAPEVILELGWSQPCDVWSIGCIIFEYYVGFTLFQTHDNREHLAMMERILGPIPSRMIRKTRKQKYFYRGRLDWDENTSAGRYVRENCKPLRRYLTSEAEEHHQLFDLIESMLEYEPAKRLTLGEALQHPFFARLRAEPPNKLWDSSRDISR
Chain of Tyrosine-protein kinase JAK3 (P52333 whole entry): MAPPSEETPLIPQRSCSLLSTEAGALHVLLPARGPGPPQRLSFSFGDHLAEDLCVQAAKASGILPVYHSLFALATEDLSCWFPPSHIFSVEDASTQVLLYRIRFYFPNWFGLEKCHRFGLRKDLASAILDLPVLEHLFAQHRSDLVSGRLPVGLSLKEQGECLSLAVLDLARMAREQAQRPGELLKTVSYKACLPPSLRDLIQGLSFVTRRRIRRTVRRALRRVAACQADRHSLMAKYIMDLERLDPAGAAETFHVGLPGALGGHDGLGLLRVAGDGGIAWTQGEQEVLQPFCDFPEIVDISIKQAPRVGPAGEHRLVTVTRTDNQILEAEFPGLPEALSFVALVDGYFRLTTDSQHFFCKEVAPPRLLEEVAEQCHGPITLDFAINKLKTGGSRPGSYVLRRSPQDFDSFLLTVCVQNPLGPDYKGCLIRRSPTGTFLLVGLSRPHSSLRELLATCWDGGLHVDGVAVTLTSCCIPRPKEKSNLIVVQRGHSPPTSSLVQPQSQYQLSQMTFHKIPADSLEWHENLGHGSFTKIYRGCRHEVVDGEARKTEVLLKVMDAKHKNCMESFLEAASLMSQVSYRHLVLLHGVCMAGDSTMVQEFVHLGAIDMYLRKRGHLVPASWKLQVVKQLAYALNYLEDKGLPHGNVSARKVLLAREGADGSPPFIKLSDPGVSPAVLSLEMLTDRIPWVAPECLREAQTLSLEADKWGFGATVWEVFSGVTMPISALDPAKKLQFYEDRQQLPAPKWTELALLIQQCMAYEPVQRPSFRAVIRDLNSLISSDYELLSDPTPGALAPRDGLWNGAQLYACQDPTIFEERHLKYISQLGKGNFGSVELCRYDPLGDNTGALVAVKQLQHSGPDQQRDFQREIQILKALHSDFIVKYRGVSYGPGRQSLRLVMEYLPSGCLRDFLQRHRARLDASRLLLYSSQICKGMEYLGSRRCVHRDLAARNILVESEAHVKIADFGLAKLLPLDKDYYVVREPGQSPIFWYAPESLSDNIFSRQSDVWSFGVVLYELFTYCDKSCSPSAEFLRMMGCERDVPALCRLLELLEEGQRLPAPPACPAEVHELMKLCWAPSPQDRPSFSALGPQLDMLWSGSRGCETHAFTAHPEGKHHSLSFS
Chain of Ephrin type-A receptor 4 (P54764 whole entry, the tested form may be a part): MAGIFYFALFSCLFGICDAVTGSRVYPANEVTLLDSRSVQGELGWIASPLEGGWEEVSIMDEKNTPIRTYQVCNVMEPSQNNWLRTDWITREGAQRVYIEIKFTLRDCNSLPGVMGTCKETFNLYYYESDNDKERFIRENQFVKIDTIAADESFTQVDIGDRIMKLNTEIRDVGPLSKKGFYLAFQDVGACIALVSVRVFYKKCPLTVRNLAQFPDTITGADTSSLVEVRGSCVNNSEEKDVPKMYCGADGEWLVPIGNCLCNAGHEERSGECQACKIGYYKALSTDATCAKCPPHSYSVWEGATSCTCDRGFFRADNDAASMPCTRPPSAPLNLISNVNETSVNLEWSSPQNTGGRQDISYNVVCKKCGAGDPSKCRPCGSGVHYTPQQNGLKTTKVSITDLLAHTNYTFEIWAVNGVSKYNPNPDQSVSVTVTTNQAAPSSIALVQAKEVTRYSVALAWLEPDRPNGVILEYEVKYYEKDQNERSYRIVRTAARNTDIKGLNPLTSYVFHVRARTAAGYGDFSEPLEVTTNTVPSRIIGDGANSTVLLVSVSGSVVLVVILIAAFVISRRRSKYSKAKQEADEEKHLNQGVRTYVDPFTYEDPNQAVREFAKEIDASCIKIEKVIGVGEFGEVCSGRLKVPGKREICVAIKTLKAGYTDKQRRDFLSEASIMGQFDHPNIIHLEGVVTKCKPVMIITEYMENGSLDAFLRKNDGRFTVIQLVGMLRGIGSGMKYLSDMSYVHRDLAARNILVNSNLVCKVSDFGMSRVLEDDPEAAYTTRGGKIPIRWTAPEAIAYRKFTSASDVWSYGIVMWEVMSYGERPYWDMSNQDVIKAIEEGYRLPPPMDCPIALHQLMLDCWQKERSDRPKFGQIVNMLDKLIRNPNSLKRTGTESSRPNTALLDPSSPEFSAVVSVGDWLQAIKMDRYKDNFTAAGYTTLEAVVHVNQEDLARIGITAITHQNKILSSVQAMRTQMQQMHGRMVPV
Chain of Serine/threonine-protein kinase 25 (O00506 whole entry, the tested form may be a part): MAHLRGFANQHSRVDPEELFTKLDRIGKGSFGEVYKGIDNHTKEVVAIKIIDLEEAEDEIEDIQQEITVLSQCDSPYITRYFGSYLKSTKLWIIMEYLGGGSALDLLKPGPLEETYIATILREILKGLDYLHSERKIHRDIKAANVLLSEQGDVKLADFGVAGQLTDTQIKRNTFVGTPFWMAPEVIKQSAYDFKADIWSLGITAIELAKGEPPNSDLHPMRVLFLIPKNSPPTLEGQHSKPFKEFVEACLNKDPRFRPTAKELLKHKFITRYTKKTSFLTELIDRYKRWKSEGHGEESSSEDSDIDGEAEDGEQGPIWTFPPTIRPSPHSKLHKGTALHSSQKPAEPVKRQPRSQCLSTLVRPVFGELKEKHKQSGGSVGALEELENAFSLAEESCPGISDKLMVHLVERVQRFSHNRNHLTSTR

CN(C)c1ccc(C(=O)Nc2cccc(NC(=O)COc3ccc4c(=O)ccoc4c3)c2)cc1
> 10 µM: [1] | [2] | [3] | [4] | [5] | [6] | [7] | [8] | [9] | [10] | [11] | [12] | [13] | [14] | [15] | [16] | [17] | [18] | [19] | [20] | [21] | [22] | [23] | [24]
